{
  "source": "paper PMC7168207",
  "about": "“Dibasic Derivatives of Phenylcarbamic Acid as Prospective Antibacterial Agents Interacting with Cytoplasmic Membrane” (Antibiotics, 2020)",
  "key": {"[1]": {"system": "human monocytic leukemia THP-1 cells", "test": "in vitro antiproliferative assay (WST-1)", "assay_type": "cell-based", "settings": "Homo sapiens, THP-1, 24 h, read-out: Tox IC50", "summary_of_the_method": "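THP-1 cells in serum-free RPMI 1640 treated with compounds (DMSO ≤0.1%) for 24 h at 37 °C, 5% CO2, triplicate; viability by WST-1 tetrazolium read-out. IC50 from dose-response curve.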"}, "[2]": {"system": "S. aureus ATCC 29213", "test": "crystal violet uptake (membrane permeability)", "assay_type": "cell-based, Staphylococcus aureus", "settings": "64 µg/mL, 1 h; two-way ANOVA, Tukey's test, p < 0.05", "experimental": "The alternation in membrane permeability was detected by crystal violet assay. Bacterial suspension treated by compounds 1f, 1g, and 1h (all 64 µg/mL) for 1 h was prepared. The uptake of crystal violet was expressed as a percentage compared to the original crystal violet solution.\nThe method of crystal violet uptake was used to study membrane alteration. Bacterial suspension was cultivated to log phase in CaMH and then harvested at 4500 rpm for 5 min. The cells were washed twice and resuspended in PBS containing 64 µg/mL of the tested compounds. […] A growth control without antibiotics and a control containing the same amount of DMSO as treated tubes were included. The tubes were cultivated at 37 °C for 1 h. After that, the tubes were centrifuged at 4500 rpm for 15 min and washed twice in PBS. The cells were resuspended in PBS containing crystal violet (10 µg/mL). After 15 min incubation at 37 °C and centrifugation (15 min, 4500 rpm), the absorbance of supernatant at 595 nm was measured. The experiment was repeated three times, and the results were averaged. The percentage of crystal violet uptake was counted according to the equation:(1) % of uptake = OD595 of sample/OD595 of crystal violet solution × 100"}, "[3]": {"system": "S. aureus ATCC 29213 biofilm", "test": "biofilm susceptibility / eradication of preformed biofilm (MTT)", "assay_type": "cell-based, Staphylococcus aureus", "settings": "for MBEC80 (minimum biofilm eradication concentration): 80% reduction of metabolic activity of preformed biofilm, 24 h", "experimental": "The ability of compounds 1f, 1g, and 1h to inhibit biofilm growth and destroy the matured biofilm of S. aureus ATCC 29213 was investigated. The inhibitory activity was studied by the method with crystal violet. The activity to disrupt matured biofilm was evaluated as a decrease of metabolic activity using the MTT assay.\nBiofilms were grown as described above but without the presence of the compounds. After 48 h of incubation at 37 °C, the contents of the wells were removed, and the plates were washed three times by sterile PBS. After washing, 100 µL of tested compounds in CaMH were added to the wells. […] A growth control containing 2.5% of DMSO in CaMH was included. The plates were incubated at 37 °C for 24 h, then the solutions of compounds were removed, and the plates were gently washed three times by sterile PBS. Bacterial viability was analyzed using 100 µL of 0.05 mg/mL MTT (3-(4,5-dimethylthiazol-2-yl)- 2,5-diphenyltetrazolium bromide) in PBS in each well. The plates with MTT were incubated at 37 °C for 1–2 h in darkness, until the blue formazan crystals appeared. MTT solution was removed and the plates were washed once by PBS. Crystals of formazan were dissolved using 17% sodium dodecysulphate in 40% dimethylformamid. The absorbance at 570 nm was measured and the percentage of eradication was counted according to the equation (3) % of eradication = 100 − OD570S/OD570C × 100 where OD570S is the absorbance of the sample at 570 nm and OD570C is the absorbance of the growth control at 570 nm. The minimum biofilm eradication concentration was the lowest concentration of the compound, which reduced the metabolic activity of the biofilm by 80% compared to the growth control. The experiment was made in duplicate and repeated at least three times."}, "[4]": {"set-up": "method as in PMID 30274224", "settings": "isocratic RP-HPLC, extrapolated lipophilicity index; cited from earlier work"}, "[5]": {"set-up": "method as in PMID 30274224", "settings": "cited from earlier work"}, "[6]": {"system": "VRE 342B", "test": "synergy with antibiotics (FIC index, checkerboard)", "assay_type": "cell-based, Enterococcus faecalis", "settings": "for MIC: Enterococcus, read-out: MIC of each antibacterial drug alone observed in the synergy experiment; for concentrations of the tested compound/clinically used antibiotic providing additivity or synergy: in the combination of that line", "excerpt": "(§1) Representatives from various classes were chosen in order to study the potential difference in synergistic activity according to the diverse mechanisms of action and resistance of these drugs. The method of minimal fractional inhibitory concentration (FIC) index (FICI) in a microtitration plate was used. FICI ≤ 0.5 means synergy; 0.5 < FICI < 1 means additivity; 1 ≤ FICI < 4 means indifference; and FICI ≥ 4 means antagonism.\n(§2) For synergy effect study, a method of fractional inhibitory concentration was used. […] Raw H was used for the evaluation of MIC(A); column 12 was used for evaluation of MIC(B). The plate was inoculated by the bacterial suspension to reach final concentration of 5 × 10^5 CFU/mL in the wells. The fractional inhibitory concentration (FIC) index was calculated using the concentrations in the first nonturbid (clear) well found in each row and column along the turbidity/nonturbidity interface. To interpret the combined effect, the lowest FICI was used. A ΣFIC ≤ 0.5 means synergy; 0.5 < ΣFIC < 1 means additivity; 1 ≤ ΣFIC < 4 means indifference; and ΣFIC ≥ 4 means antagonism. The tests were made in duplicate, and the results were averaged."}, "[7]": {"system": "VRE 368", "test": "synergy with antibiotics (FIC index, checkerboard)", "assay_type": "cell-based, Enterococcus faecalis", "settings": "for MIC: Enterococcus, VRE, read-out: MIC of each antibacterial drug alone observed in the synergy experiment; for concentrations of the tested compound/clinically used antibiotic providing additivity or synergy: in the combination of that line", "excerpt": "as §1, §2"}, "[8]": {"settings": "VRE 342B, tested compound/antibiotic"}, "[9]": {"settings": "VRE 368, tested compound/antibiotic"}},
  "note": "Several values for one entry are separate records, joined by “and”; a condition that tells them apart may be missing. Equal values may be shown once. Read-outs that look alike come from different tables or passages of the source.",
  "data": [
    {"smiles": "CCCCCOc1cccc(NC(=O)OC(CN(CCC)CCC)CN2CCCC2)c1.Cl.Cl", "note": "(stereo not shown) [1f, 1-[3-(dipropylammonio)-2-({[3-(pentyloxy)phenyl]carbamoyl}-oxy)propyl]pyrrolidinium dichloride]", "values": [
      {"measurement": "IC50", "setting": "[1]; THP-1 cells, WST-1, 24 h", "result": "4.19 ± 0.54", "unit": "µM"},
      {"measurement": "crystal violet uptake compared with 1% Tween 20 (positive control)", "setting": "[2]", "result": "No statistically significant difference"},
      {"measurement": "MBEC80 (minimum biofilm eradication concentration)", "setting": "[3]", "result": 64, "unit": "µg/mL"},
      {"measurement": "log kw", "setting": "[4]", "result": 4.6722},
      {"measurement": "γ (surface tension, relative surface activity)", "setting": "[5]", "result": 0.06285, "unit": "N/m"}
    ]},
    {"smiles": "CCCCCCOc1cccc(NC(=O)OC(CN(CCC)CCC)CN2CCCC2)c1.Cl.Cl", "note": "(stereo not shown) [1g, 1-[3-(dipropylammonio)-2-({[3-(hexyloxy)phenyl]carbamoyl}oxy)propyl]pyrrolidinium dichloride]", "values": [
      {"measurement": "IC50", "setting": "[1]; THP-1 cells, WST-1, 24 h", "result": "3.5 ± 0.31", "unit": "µM"},
      {"measurement": "MIC", "setting": "[6]; [8]", "result": 8, "unit": "µg/mL"},
      {"measurement": "concentrations of the tested compound/clinically used antibiotic providing additivity or synergy", "setting": "[6]; VRE 342B", "result": 4, "unit": "µg/mL"},
      {"measurement": "MIC", "setting": "[7]; [9]", "result": 8, "unit": "µg/mL"},
      {"measurement": "concentrations of the tested compound/clinically used antibiotic providing additivity or synergy", "setting": "[7]; VRE 368", "result": 4, "unit": "µg/mL"},
      {"measurement": "crystal violet uptake compared with 1% Tween 20 (positive control)", "setting": "[2]", "result": "No statistically significant difference"},
      {"measurement": "MBEC80 (minimum biofilm eradication concentration)", "setting": "[3]", "result": 16, "unit": "µg/mL"},
      {"measurement": "log kw", "setting": "[4]", "result": 4.9446},
      {"measurement": "γ (surface tension, relative surface activity)", "setting": "[5]", "result": 0.06105, "unit": "N/m"}
    ]},
    {"smiles": "CCCCCCCOc1cccc(NC(=O)OC(CN(CCC)CCC)CN2CCCC2)c1.Cl.Cl", "note": "(stereo not shown) [1h, 1-[3-(Dipropylammonio)-2-({[3-(heptyloxy)phenyl]carbamoyl}oxy)propyl]pyrrolidinium dichloride]", "values": [
      {"measurement": "IC50", "setting": "[1]; THP-1 cells, WST-1, 24 h", "result": "3.67 ± 0.01", "unit": "µM"},
      {"measurement": "MIC", "setting": "[6]; [8]", "result": 8, "unit": "µg/mL"},
      {"measurement": "concentrations of the tested compound/clinically used antibiotic providing additivity or synergy", "setting": "[6]; VRE 342B", "result": 2, "unit": "µg/mL"},
      {"measurement": "MIC", "setting": "[7]; [9]", "result": 4, "unit": "µg/mL"},
      {"measurement": "crystal violet uptake compared with 1% Tween 20 (positive control)", "setting": "[2]", "result": "No statistically significant difference"},
      {"measurement": "concentration giving 80% degradation of preformed biofilm relative to MIC", "setting": "[3]", "result": "two-fold"},
      {"measurement": "MBEC80 (minimum biofilm eradication concentration)", "setting": "[3]", "result": 16, "unit": "µg/mL"},
      {"measurement": "log kw", "setting": "[4]", "result": 5.5384},
      {"measurement": "γ (surface tension, relative surface activity)", "setting": "[5]", "result": 0.05786, "unit": "N/m"}
    ]},
    {"smiles": "CN[C@H](CC(C)C)C(=O)N[C@H]1C(=O)N[C@@H](CC(N)=O)C(=O)N[C@H]2C(=O)N[C@H]3C(=O)N[C@H](C(=O)N[C@H](C(=O)O)c4cc(O)cc(O)c4-c4cc3ccc4O)[C@H](O)c3ccc(c(Cl)c3)Oc3cc2cc(c3O[C@@H]2O[C@H](CO)[C@@H](O)[C@H](O)[C@H]2O[C@H]2C[C@](C)(N)[C@H](O)[C@H](C)O2)Oc2ccc(cc2Cl)[C@H]1O", "note": "[VAN, vancomycin, reference compound]", "values": [
      {"measurement": "IC50", "setting": "[1]", "result": "> 30", "unit": "µM"},
      {"measurement": "MIC", "setting": "[6]; VRE", "result": 1020, "unit": "µg/mL"},
      {"measurement": "concentrations of the tested compound/clinically used antibiotic providing additivity or synergy", "setting": "[6]; VRE 342B", "result": "128 µg/mL and 256 µg/mL"},
      {"measurement": "MIC", "setting": "[7]", "result": 512, "unit": "µg/mL"},
      {"measurement": "concentrations of the tested compound/clinically used antibiotic providing additivity or synergy", "setting": "[7]; VRE 368", "result": 128, "unit": "µg/mL"}
    ]}
  ]
}
